Experiments:
Assay type in all cases: cell-based
HCT-116 cells = test: Oxygen consumption of HCT-116 cells on the oxygen sensing film
Description: To determine the minimum number of cells necessary to observe a signal change, HCT-116 cells were titrated from 15k-120k cells/well (95k-750k cells/cm^2). The following day, the culture medium of the cells was replaced with fresh DMEM (high glucose, without phenol red), and the ratiometric fluorescence of 650/490 nm was recorded over time in a plate reader with temperature control at 37° C. […] Further experiments using drug treatments were carried out at 250k cells/cm^2.
HCT-116 cells were seeded onto the oxygen sensing surface functionalized with 300 ug mL-1 Collagen I at 40,000 cells/well of a half-area 96-well plate (250,000 cells/cm^2). The following day, the culture medium was replaced with medium containing 2-[[4-(trifluoromethoxy)phenyl]hydrazinylidene]propanedinitrile (FCCP), an uncoupler of oxidative phosphorylation in mitochondria that increases oxygen consumption. […] HCT-116 cells were additionally treated with rotenone at 2 uM, which is an inhibitor of oxidative phosphorylation.

HEP-G2 = test: Oxygen consumption of HEP-G2 cells on the oxygen sensing film; details: HEP-G2, drug treatment
PC-3 = test: Oxygen consumption of PC-3 cells on the oxygen sensing film; details: PC-3, drug treatment
C2C12 cells = test: Cell attachment / cellular coverage on protein-coated siloxane surface; details: for coating concentration sufficient to enhance the adhesion of cells to the surface: C2C12 cells on coated siloxane surface; for cellular coverage on the substrate: C2C12 seeded at 60,000 cells/cm^2, assessed the following day, covalent or passive coating, 100-3,000 ug mL-1
Description: After silane film fabrication, the film surface was further modified with a biomacromolecule coating to enhance cell attachment. Biomacromolecules assessed for cell attachment include collagen type I (rat tail, acid extracted) and laminin. […] Passive coating of the substrate is achieved by incubating a solution of the biomacromolecule (e.g., 300 ug mL-1 collagen type I in 17 mM acetic acid) on the film for either 1 hour at room temperature or overnight at 4° C. Excess biomacromolecule was removed by washing the substrate with phosphate buffered saline (PBS).
The surface was coated with Collagen I and Laminin, either covalently or passively. Covalent conjugation is achieved with sulfo-SANPAH conjugation method, and passive coating is achieved by incubating the siloxane surface in the presence of the protein for 1 hour at room temperature. The protein was titrated from 100 ug mL-1-3,000 ug mL-1. C2C12 cells were seeded on the coated surface at 60,000 cells/cm^2, and cellular coverage on the substrate was assessed the following day.

Molecule	oxygen consumption (HCT-116 cells; HCT-116, 40,000 cells/well, FCCP treatment, concentration up to 4 uM)	oxygen consumption (HEP-G2)	oxygen consumption (PC-3)	oxygen consumption (HCT-116 cells; HCT-116, rotenone at 2 uM)	coating concentration sufficient to enhance the adhesion of cells to the surface (C2C12 cells) [µg/mL]	cellular coverage on the substrate (C2C12 cells)	cell attachment (C2C12 cells; passive coating of the film)
N#CC(C#N)=NNc1ccc(OC(F)(F)F)cc1 [FCCP, 2-[[4-(trifluoromethoxy)phenyl]hydrazinylidene]propanedinitrile]	oxygen consumption increased with increasing FCCP concentration up to 4 uM	increased oxygen consumption	increased oxygen consumption				
C=C(C)[C@H]1Cc2c(ccc3c2O[C@@H]2COc4cc(OC)c(OC)cc4[C@@H]2C3=O)O1 [rotenone]		decreased oxygen consumption	decreased oxygen consumption	inhibited oxygen consumption			
Collagen I: collagen type I (rat tail, acid extracted), biomacromolecule coating to enhance cell attachment					300	enhanced cellular coverage	sufficient for cell attachment
Laminin					300	enhanced cellular coverage	

From patent US20240059961A1, “BIOCOMPATIBLE OXYGEN-SENSITIVE MATERIALS” (Promega Corporation, priority 2022, published 2024)
